Experimental data as given in US12091425B2 (AMGEN INC., priority 2016, dated 2024).

What was measured:
[1] = molecular target: T1, Mcl-1/Bim interaction, recombinant human Mcl-1 (171-327) (Homo sapiens, UniProt Q07820); assay: Cell free Mcl-1: Bim Affinity Assay (Mcl-1 HTRF); type: binding; conditions: TR-FRET, 0.1 nM Mcl-1 (171-327), 0.05 nM biotin-Bim (51-76)
T1 construct: made in house
In short: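 Compounds were mixed with the protein and a biotinylated Bim peptide spanning human residues 51-76. Plates were left overnight, then TR-FRET signal was measured. A four-parameter sigmoidal model applied to duplicate competition data gave IC50.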

[2] = system: OPM-2 human multiple myeloma cell line; assay: Cell Viability Assay (OPM-2 10 FBS); type: cell-based; conditions: OPM-2 cells, 16 h, CellTiter-Glo
In short: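 IC50 from 4-parameter logistic fit of CellTiter-Glo luminescence. 3000 cells/well, 10% FBS medium, serial compound dilutions, 16 h, 37 °C/5% CO2; read 25 min post-reagent.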

T1 sequence (Q07820 171-327): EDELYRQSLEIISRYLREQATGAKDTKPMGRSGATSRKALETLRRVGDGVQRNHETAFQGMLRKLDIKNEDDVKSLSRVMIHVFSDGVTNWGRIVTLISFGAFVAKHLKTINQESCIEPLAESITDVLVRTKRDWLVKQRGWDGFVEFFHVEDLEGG

| IC50 [1] | IC50 ([2]; Homo sapiens, OPM-2, 16 h) | Structure (SMILES) | IC50 [2] |
| --- | --- | --- | --- |
| 0.153 nM | 1000 nM | C[C@@H]1[C@@H](C)C/C=C/[C@H](OCC(=O)N2CCC(O)CC2)[C@@H]2CC[C@H]2CN2C[C@@]3(CCCc4cc(Cl)ccc43)COc3ccc(cc32)C(=O)NS1(=O)=O [Example 312, (1S,3′R,6′R,7′S,8′E,11′S,12′R)-6-chloro-7′-(2-(4-hydroxy-1-piperidinyl)-2-oxoethoxy)-11′,12′-dimethyl-3,4-dihydro-2H,15′H-spiro[naphthalene-1,22′-[20]oxa[13]thia[1,14]diazatetracyclo[14.7.2.0^3,6.0^19,24]pentacosa [8,16,18,24]tetraen]-15′-one 13′,13′-dioxide] |  |
| 0.185 nM | 220 nM | C[C@@H]1[C@@H](C)C/C=C/[C@H](OCC(=O)N2CCOCC2)[C@@H]2CC[C@H]2CN2C[C@@]3(CCCc4cc(Cl)ccc43)COc3ccc(cc32)C(=O)NS1(=O)=O [Example 313, (1S,3′R,6′R,7′S,8′E,11′S,12′R)-6-chloro-11′,12′-dimethyl-7′-(2-(4-morpholinyl)-2-oxoethoxy)-3,4-dihydro-2H,15′H-spiro[naphthalene-1,22′-[20]oxa[13]thia[1,14]diazatetracyclo[14.7.2.0^3,6.0^19,24]pentacos [8,16,18,24]tetraen]-15′-one 13′,13′-dioxide] |  |
| 0.136 nM | 2120 nM | C[C@@H]1[C@@H](C)C/C=C/[C@H](OCC(=O)N2CCNC(=O)C2)[C@@H]2CC[C@H]2CN2C[C@@]3(CCCc4cc(Cl)ccc43)COc3ccc(cc32)C(=O)NS1(=O)=O [Example 314, (1S,3′R,6′R,7′S,8′E,11′S,12′R)-6-chloro-11′,12′-dimethyl-7′-(2-oxo-2-(3-oxo-1-piperazinyl)ethoxy)-3,4-dihydro-2H,15′H-spiro[naphthalene-1,22′-[20]oxa[13]thia[1,14]diazatetracyclo[14.7.2.0^3,6.0^19,24]pentacosa [8,16,18,24]tetraen]-15′-one 13′,13′-dioxide] |  |
| 0.774 nM | 421 nM | C[C@@H]1[C@@H](C)C/C=C/[C@H](OCC(=O)N2CCC(F)(F)CC2)[C@@H]2CC[C@H]2CN2C[C@@]3(CCCc4cc(Cl)ccc43)COc3ccc(cc32)C(=O)NS1(=O)=O [Example 315, (1S,3′R,6′R,7′S,8′E,11′S,12′R)-6-chloro-7′-(2-(4,4-difluoro-1-piperidinyl)-2-oxoethoxy)-11′,12′-dimethyl-3,4-dihydro-2H,15′H-spiro[naphthalene-1,22′-[20]oxa[13]thia[1,14]diazatetracyclo[14.7.2.0^3,6.0^19,24]pentacosa [8,16,18,24]tetraen]-15′-one 13′,13′-dioxide] |  |
| 0.0986 nM | 162 nM | C[C@@H]1[C@@H](C)C/C=C/[C@H](OCC(=O)N2CCN(C)CC2)[C@@H]2CC[C@H]2CN2C[C@@]3(CCCc4cc(Cl)ccc43)COc3ccc(cc32)C(=O)NS1(=O)=O [Example 316, (1S,3′R,6′R,7′S,8′E,11′S,12′R)-6-chloro-11′,12′-dimethyl-7′-(2-(4-methyl-1-piperazinyl)-2-oxoethoxy)-3,4-dihydro-2H,15′H-spiro[naphthalene-1,22′-[20]oxa[13]thia[1,14]diazatetracyclo[14.7.2.0^3,6.0^19,24]pentacosa [8,16,18,24]tetraen]-15′-one 13′,13′-dioxide] |  |
| 0.223 nM | 196 nM | C[C@@H]1[C@@H](C)C/C=C/[C@H](OCc2ncccn2)[C@@H]2CC[C@H]2CN2C[C@@]3(CCCc4cc(Cl)ccc43)COc3ccc(cc32)C(=O)NS1(=O)=O [Example 317, (1S,3′R,6′R,7′S,8′E,11′S,12′R)-6-chloro-11′,12′-dimethyl-7′-(2-pyrimidinylmethoxy)-3,4-dihydro-2H,15′H-spiro[naphthalene-1,22′-[20]oxa[13]thia[1,14]diazatetracyclo[14.7.2.0^3,6.0^19,24]pentacosa [8,16,18,24]tetraen]-15′-one 13′,13′-dioxide] |  |
| 3.83 nM | 1050 nM | C[C@@H]1[C@@H](C)C/C=C/C(=O)[C@@H]2CC[C@H]2CN2C[C@@]3(CCCc4cc(Cl)ccc43)COc3ccc(cc32)C(=O)NS1(=O)=O [Example 349, (1S,3′R,6′R,8′E,11′S,12′R)-6-chloro-11′,12′-dimethyl-3,4-dihydro-2H,7′H,15′H-spiro[naphthalene-1,22′-[20]oxa[13]thia[1,14]diazatetracyclo[14.7.2.0^3,6.0^19,24]pentacosa [8,16,18,24]tetraene]-7′,15′-dione 13′,13′-dioxide] |  |
| 0.303 nM | 180 nM | COCCOCCO[C@H]1/C=C/C[C@H](C)[C@@H](C)S(=O)(=O)NC(=O)c2ccc3c(c2)N(C[C@@H]2CC[C@H]21)C[C@@]1(CCCc2cc(Cl)ccc21)CO3 [Example 377, (1S,3′R,6′R,7′S,8′E,11′S,12′R)-6-chloro-7′-(2-(2-methoxyethoxy)ethoxy)-11′,12′-dimethyl-3,4-dihydro-2H,15′H-spiro[naphthalene-1,22′-[20]oxa[13]thia[1,14]diazatetracyclo[14.7.2.0^3,6.0^19,24]pentacosa[8,16,18,24]tetraen]-15′-one 13′,13′-dioxide] |  |
| 0.24 nM | 140 nM | COCCOCCOCCO[C@H]1/C=C/C[C@H](C)[C@@H](C)S(=O)(=O)NC(=O)c2ccc3c(c2)N(C[C@@H]2CC[C@H]21)C[C@@]1(CCCc2cc(Cl)ccc21)CO3 [Example 378, (1S,3′R,6′R,7′S,8′E,11′S,12′R)-6-chloro-7′-(2-(2-(2-methoxyethoxy)ethoxy)ethoxy)-11′,12′-dimethyl-3,4-dihydro-2H,15′H-spiro[naphthalene-1,22′-[20]oxa[13]thia[1,14]diazatetracyclo[14.7.2.0^3,6.0^19,24]pentacosa[8,16,18,24]tetraen]-15′-one 13′,13′-dioxide] |  |
| 0.211 nM | 128 nM | COCCOCCOCCOCCO[C@H]1/C=C/C[C@H](C)[C@@H](C)S(=O)(=O)NC(=O)c2ccc3c(c2)N(C[C@@H]2CC[C@H]21)C[C@@]1(CCCc2cc(Cl)ccc21)CO3 [Example 379, (1S,3′R,6′R,7′S,8′E,11′S,12′R)-6-chloro-11′,12′-dimethyl-7′-(3,6,9,12-tetraoxatridec-1-yloxy)-3,4-dihydro-2H,15′H-spiro[naphthalene-1,22′-[20]oxa[13]thia[1,14]diazatetracyclo[14.7.2.0^3,6.0^19,24]pentacosa[8,16,18,24]tetraen]-15′-one 13′,13′-dioxide] |  |
| 1.65 nM | 1250 nM | CC1CC=CC(OCC(C)N2CCOCC2)C2CCC2CN2CC3(CCCc4cc(Cl)ccc43)COc3ccc(cc32)C(=O)NS(=O)(=O)C1CC1CC1 (stereo not drawn) [Example 387] |  |

| Structure (SMILES) | IC50 [1] | IC50 ([2]; Homo sapiens, OPM-2, 16 h) | IC50 [2] |
| --- | --- | --- | --- |
| O=C1NS(=O)(=O)N2CCC[C@@H]2C/C=C/[C@H](O)[C@@H]2CC[C@H]2CN2C[C@@]3(CCCc4cc(Cl)ccc43)COc3ccc1cc32 [Example 347, (1S,3′R,6′R,7′S,8′E,11R)-6-chloro-7′-hydroxy-3,4-dihydro-2H,18′H-spiro[naphthalene-1,25′-[23]oxa[16]thia[1,15,17]triazapentacyclo[17.7.2.0^3,6.0^11,15.0^22,27]octacosa[8,19,21,27]tetraen]-18′-one 16′,16′-dioxide] | 7.22 nM |  | 5550 nM |
